Measured values from patent US10807971B2, “Pyrrolidinone compounds” (Eli Lilly and Company, priority 2016, dated 2020).
Counter-ions that a name gives are not always drawn. Values belong to the molecule of their own block, whether it stands above or below them.

Tests used:
obese DIO mice = assay: Therapeutic weight loss effect in HFD feeding induced obese mouse model (DIO mice); assay type: in vivo; details: day 14
Protocol: To determine the therapeutic weight loss effects and improvement of metabolic parameters, the compound from the invention is tested in a HFD feeding induced obese mouse model (DIO mice). In this model, C57/B16J male mouse is fed with the 60% HFD (D12492i, Research Diets) for 16˜28 weeks to establish obesity with body weight reaching around 50 g. The mice will gradually increase their body weight to about 50 g and maintain that weight in this obese state.

[1] = target: Human DPP-4 ((39-766)-His) (Homo sapiens (Human), UniProt P27487); assay: Enzymatic activity assay of DPP-4 (Gly-Pro-AMC fluorescence); assay type: biochemical; details: (SD, n), read-out: hDPP-4 IC50
Chain of Human DPP-4 ((39-766)-His) (P27487 39-766): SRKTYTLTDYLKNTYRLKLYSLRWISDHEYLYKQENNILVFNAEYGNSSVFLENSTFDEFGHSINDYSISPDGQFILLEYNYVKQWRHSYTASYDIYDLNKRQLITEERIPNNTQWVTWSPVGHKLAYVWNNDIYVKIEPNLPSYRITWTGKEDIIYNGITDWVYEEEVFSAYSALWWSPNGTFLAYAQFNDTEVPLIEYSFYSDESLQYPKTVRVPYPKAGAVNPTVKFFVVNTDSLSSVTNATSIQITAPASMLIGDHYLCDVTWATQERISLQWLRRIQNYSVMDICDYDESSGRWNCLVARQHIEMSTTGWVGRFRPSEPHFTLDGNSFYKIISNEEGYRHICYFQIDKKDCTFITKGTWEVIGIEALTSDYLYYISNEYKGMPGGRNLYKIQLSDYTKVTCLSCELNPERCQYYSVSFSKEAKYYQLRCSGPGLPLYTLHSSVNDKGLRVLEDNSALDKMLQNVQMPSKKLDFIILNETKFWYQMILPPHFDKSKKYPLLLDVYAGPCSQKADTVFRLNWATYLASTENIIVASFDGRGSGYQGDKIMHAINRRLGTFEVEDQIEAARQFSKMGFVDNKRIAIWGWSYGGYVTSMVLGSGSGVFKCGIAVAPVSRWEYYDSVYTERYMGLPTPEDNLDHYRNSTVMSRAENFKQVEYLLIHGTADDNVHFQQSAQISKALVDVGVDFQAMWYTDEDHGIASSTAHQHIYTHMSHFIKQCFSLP
Protocol: (§1) Inhibition of the catalytic activity of human and mouse DPP-4 by the compound in the present invention is monitored by the formation of product fluorescence AMC from substrate Gly-Pro-AMC (Sigma, G2761) on an Envision plate reader. […] The IC50 value is calculated typically from a 10-point dose titration curve using the 4-parameter logistic equation.

[2] = target: mouse DPP-4 ((29-760)-His) (Mus musculus (Mouse), UniProt P28843); assay: as above; assay type: biochemical; details: (SD, n), read-out: mDPP-4 IC50
Chain of mouse DPP-4 ((29-760)-His) (P28843 29-760): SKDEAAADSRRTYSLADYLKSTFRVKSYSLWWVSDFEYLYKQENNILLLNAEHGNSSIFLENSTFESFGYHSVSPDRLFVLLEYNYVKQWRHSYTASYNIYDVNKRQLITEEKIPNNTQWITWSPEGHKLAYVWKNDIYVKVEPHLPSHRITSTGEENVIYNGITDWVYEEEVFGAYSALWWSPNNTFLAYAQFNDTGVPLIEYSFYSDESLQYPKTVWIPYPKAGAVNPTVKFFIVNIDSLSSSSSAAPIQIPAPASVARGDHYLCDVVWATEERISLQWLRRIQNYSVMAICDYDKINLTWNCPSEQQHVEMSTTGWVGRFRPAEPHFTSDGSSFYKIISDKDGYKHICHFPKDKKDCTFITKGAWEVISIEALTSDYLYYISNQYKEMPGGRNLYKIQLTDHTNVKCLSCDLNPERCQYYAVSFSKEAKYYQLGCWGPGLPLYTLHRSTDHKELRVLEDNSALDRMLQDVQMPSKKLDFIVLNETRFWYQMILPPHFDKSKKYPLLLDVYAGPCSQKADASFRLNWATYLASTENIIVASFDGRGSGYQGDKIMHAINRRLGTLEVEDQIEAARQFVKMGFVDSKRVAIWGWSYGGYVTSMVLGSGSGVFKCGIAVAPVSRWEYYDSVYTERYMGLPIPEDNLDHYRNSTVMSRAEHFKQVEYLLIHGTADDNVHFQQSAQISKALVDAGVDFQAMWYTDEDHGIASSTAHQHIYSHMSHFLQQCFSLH
Protocol: as §1

Compound: Cl.N[C@H]1C[C@@H](N2Cc3ccc(N4CCC(O)(C(=O)NCc5cc(F)cc(F)c5F)C4=O)cc3C2)CO[C@@H]1c1cc(F)ccc1F (single isomer, unassigned; isomer 1) [Example 1]
weight loss compared to the vehicle group (obese DIO mice; oral 20 mg/kg once daily): about 8.9%

Compound: Cl.N[C@H]1C[C@@H](n2cc(N3CCC(O)(C(=O)NCc4cc(Cl)cc(Cl)c4F)C3=O)cn2)CO[C@@H]1c1cc(F)ccc1F (single isomer, unassigned; isomer 1) [Example 7]
weight loss compared to the vehicle group (obese DIO mice; oral 40 mg/kg once daily): about 4.8%

IC50 [1]: < 1.52 nM | IC50 [2]: < 1.52 nM
Compound: N[C@H]1C[C@@H](n2ncc(N3CCC(O)(C(=O)NCc4cc(Cl)cc(Cl)c4F)C3=O)n2)CO[C@@H]1c1cc(F)ccc1F (single isomer, unassigned; isomer 1) [Example 11, hydrochloride]
